Assay results from patent US8791163B2 (McGill University, priority 2006, dated 2014).
Where “and” joins values, the source holds several entries; their conditions need not be identical. Equal entries are not always repeated.

Legend:
[1] = molecular target: T1, cloned human MT1 receptors (Homo sapiens, UniProt P48039); experiment: [35S]GTPγS binding assay, NIH3T3 cells expressing human MT1; format: biochemical
T1 construct: expressed in transfected cells

Male Sprague-Dawley rats = experiment: Forced Swimming Test (FST); format: in vivo, rat; details: 5b 40 mg/kg i.p. 24, 5 and 1 hour prior to the test; vs vehicle
From the text: The forced swimming test (FST), Open field Test (OFT) and the in vivo electrophysiology recording were employed to evaluate the anti-depressant activity, the anti-anxiety activity and the sleep promoting properties of the compounds of the present invention [compounds of Formula (I)]. The following results were obtained using compound 5b. Male Sprague-Dawley rats (225-275 g, Charles-River Saint-Constant, Quebec, Canada) were used. The animals were housed at constant room temperature and humidity under a 12 h light/dark cycle. Food and water were available ad libitum. All procedures were approved by local institutional care and use committees and followed the guidelines released by the Canadian Institutes of Health Research.
The FST is typically a two-day procedure in which rats are immersed in a water containing cylinder (18 cm in diameter; 40 cm high; water 30 cm deep, 25-27° C.) from which they cannot escape. On the first day, the rats are forced to remain in the water bath for 15 minutes (pre-test). During this time, the rats usually struggle to escape, but eventually adopt a posture of immobility in which they emit only the minimal movements necessary to keep their heads above water. The actual test (5 min) occurs 24 h later. When re-immersed in the water, immobility is increased; antidepressant treatments reliably reduce immobility during the test. The FST is both sensitive and selective for clinically effective antidepressants, has been repeatedly validated and is currently the most popular model for detecting antidepressant activity due to its ease of use, reliability and extremely high predictive validity (Lucki, I. (1997) Behav. Pharmacol. 8(6-7): 523-32).
At the end of the pre-test, the rats are removed from the water bath, dried with towels and placed in a warm enclosure for 15 min. The rats are then returned to their respective home cages. […] Behavior is recorded continuously throughout the 5 min test by a video camera positioned directly above the water cylinder. […] The total time for each type of behavior represents the times that a specified behavior is detected. […]

T1 sequence (P48039 whole entry): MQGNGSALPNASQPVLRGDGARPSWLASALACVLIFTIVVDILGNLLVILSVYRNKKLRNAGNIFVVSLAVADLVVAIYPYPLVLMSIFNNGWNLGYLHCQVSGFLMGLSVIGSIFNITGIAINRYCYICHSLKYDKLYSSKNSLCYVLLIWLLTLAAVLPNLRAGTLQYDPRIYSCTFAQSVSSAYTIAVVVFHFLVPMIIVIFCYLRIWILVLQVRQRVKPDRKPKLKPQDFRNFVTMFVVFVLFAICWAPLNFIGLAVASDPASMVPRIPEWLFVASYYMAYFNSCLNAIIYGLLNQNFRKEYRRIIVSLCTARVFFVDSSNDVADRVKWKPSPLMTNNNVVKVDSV

With `COc1cccc(N(CCNC(C)=O)c2ccccc2)c1` [5b, N-{2-[(3-Methoxyphenyl)-phenylamino]ethyl}acetamide] the “functional behaviour (maximal stimulation of basal [35S]GTPγS binding lower than melatonin)” value ([1]; MT1 and MT2) was “partial agonist”, the “MT1 IAr ± SEM (relative intrinsic activity)” value ([1]; maximal net effect relative to MLT) was 0.8 and 0.79 ± 0.03 and the immobility (Male Sprague-Dawley rats) was “significantly decreased”. For the same molecule, the “tendency to climb or burst” value (Male Sprague-Dawley rats) was “increased the tendency to climb or burst” and the tendency to swim (Male Sprague-Dawley rats) was “increased the tendency to swim”.
